Drawing on patent US11866720B2, “Transgenic or non-transgenic plants with mutated protoporphyrinogen oxidase having increased tolerance to herbicides” (priority 2013, dated 2024), this text covers IC50 for 6 molecules.

Residue numbers refer to the chain shown, from its start.

Holding throughout (experiment): biochemical
For experiment [1], the target named is recombinant wildtype and mutated PPO (Amaranthus PPO2: PPX2L_WC SEQ ID NO 2, PPX2L_AC SEQ ID NO 4, dG210 SEQ ID NO 6 & 8) (Amaranthus tuberculatus, UniProt Q0NZW9, D133A/F420V/R128H). The note with it: IC50 (M).
recombinant wildtype and mutated PPO (Amaranthus PPO2: PPX2L_WC SEQ ID NO 2, PPX2L_AC SEQ ID NO 4, dG210 SEQ ID NO 6 & 8) (Amaranthus tuberculatus, UniProt Q0NZW9, D133A/F420V/R128H), sequence (Q0NZW9 1-534 R128H/D133A/F420V): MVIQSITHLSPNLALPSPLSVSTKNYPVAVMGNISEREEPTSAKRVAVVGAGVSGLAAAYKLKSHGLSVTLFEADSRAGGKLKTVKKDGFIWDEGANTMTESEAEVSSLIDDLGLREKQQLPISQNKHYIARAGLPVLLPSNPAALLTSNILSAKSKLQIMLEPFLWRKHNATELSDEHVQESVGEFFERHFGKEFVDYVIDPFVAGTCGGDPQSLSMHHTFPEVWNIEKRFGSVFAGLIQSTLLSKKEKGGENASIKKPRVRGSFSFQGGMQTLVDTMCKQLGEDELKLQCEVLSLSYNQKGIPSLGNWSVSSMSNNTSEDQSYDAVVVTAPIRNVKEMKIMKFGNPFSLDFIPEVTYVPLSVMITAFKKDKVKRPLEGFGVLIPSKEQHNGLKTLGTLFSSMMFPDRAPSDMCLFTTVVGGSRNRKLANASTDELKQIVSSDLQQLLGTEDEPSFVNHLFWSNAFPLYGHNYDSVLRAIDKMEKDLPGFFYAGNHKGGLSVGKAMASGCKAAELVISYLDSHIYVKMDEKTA
In experiment [2] the target is recombinant wildtype and mutated PPO (Amaranthus PPO2: PPX2L_WC SEQ ID NO 2, PPX2L_AC SEQ ID NO 4, dG210 SEQ ID NO 6 & 8) (Amaranthus tuberculatus, UniProt Q0NZW9, D133A/F420M/R128G). The note with it: IC50 (M).
recombinant wildtype and mutated PPO (Amaranthus PPO2: PPX2L_WC SEQ ID NO 2, PPX2L_AC SEQ ID NO 4, dG210 SEQ ID NO 6 & 8) (Amaranthus tuberculatus, UniProt Q0NZW9, D133A/F420M/R128G), sequence (Q0NZW9 1-534 R128G/D133A/F420M): as the sequence (Q0NZW9 1-534 R128H/D133A/F420V) above, with H128G, V420M counted along it
Experiment [3] deals with recombinant wildtype and mutated PPO (Amaranthus PPO2: PPX2L_WC SEQ ID NO 2, PPX2L_AC SEQ ID NO 4, dG210 SEQ ID NO 6 & 8) (Amaranthus tuberculatus, UniProt Q0NZW9, D133A/F420M/R128S). The note with it: IC50 (M).
recombinant wildtype and mutated PPO (Amaranthus PPO2: PPX2L_WC SEQ ID NO 2, PPX2L_AC SEQ ID NO 4, dG210 SEQ ID NO 6 & 8) (Amaranthus tuberculatus, UniProt Q0NZW9, D133A/F420M/R128S), sequence (Q0NZW9 1-534 R128S/D133A/F420M): as the sequence (Q0NZW9 1-534 R128H/D133A/F420V) above, with H128S, V420M counted along it
For experiment [4], the target named is T1, recombinant wildtype and mutated PPO (Amaranthus PPO2: PPX2L_WC SEQ ID NO 2, PPX2L_AC SEQ ID NO 4, dG210 SEQ ID NO 6 & 8) (Amaranthus tuberculatus, UniProt Q0NZW9, D133A/F420M/R128T).
T1 sequence (Q0NZW9 1-534 R128T/D133A/F420M): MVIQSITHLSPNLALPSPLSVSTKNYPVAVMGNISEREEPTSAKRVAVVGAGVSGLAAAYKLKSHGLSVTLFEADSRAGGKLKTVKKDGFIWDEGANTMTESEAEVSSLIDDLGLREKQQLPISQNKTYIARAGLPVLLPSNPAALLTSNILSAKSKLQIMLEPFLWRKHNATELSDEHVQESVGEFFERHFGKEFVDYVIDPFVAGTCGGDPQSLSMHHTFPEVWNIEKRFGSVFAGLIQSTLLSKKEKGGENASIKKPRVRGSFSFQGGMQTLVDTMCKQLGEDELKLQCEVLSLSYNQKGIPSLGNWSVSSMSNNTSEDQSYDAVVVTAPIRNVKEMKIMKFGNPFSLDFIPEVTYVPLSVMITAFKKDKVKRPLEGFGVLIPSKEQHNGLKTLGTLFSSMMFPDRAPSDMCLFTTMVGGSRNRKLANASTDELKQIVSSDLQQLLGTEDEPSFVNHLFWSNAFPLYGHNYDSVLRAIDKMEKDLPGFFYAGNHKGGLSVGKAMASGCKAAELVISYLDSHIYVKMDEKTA
To be noted: IC50 (M).

Experiment [5] deals with T2, recombinant wildtype and mutated PPO (Amaranthus PPO2: PPX2L_WC SEQ ID NO 2, PPX2L_AC SEQ ID NO 4, dG210 SEQ ID NO 6 & 8) (Amaranthus tuberculatus, UniProt Q0NZW9, D133A/F420M/R128Q).
T2 sequence (Q0NZW9 1-534 R128Q/D133A/F420M): T1 sequence (Q0NZW9 1-534 R128T/D133A/F420M) with T128Q
The note with it: IC50 (M).

The target of experiment [6] is T3, recombinant wildtype and mutated PPO (Amaranthus PPO2: PPX2L_WC SEQ ID NO 2, PPX2L_AC SEQ ID NO 4, dG210 SEQ ID NO 6 & 8) (Amaranthus tuberculatus, UniProt Q0NZW9, R128A/F420M, form not given).
T3 sequence (Q0NZW9 1-534 R128A/F420M): T1 sequence (Q0NZW9 1-534 R128T/D133A/F420M) with T128A, A133D

Experiment [7] has as its target T4, recombinant wildtype and mutated PPO (Amaranthus PPO2: PPX2L_WC SEQ ID NO 2, PPX2L_AC SEQ ID NO 4, dG210 SEQ ID NO 6 & 8) (Amaranthus tuberculatus, UniProt Q0NZW9).
T4 sequence (Q0NZW9 1-534): T1 sequence (Q0NZW9 1-534 R128T/D133A/F420M) with T128R, A133D, M420F

In the case of `C#CCN1C(=O)C(F)(F)Oc2cc(F)c(-n3c(=O)n(C)c(=S)n(C)c3=O)cc21`, the IC50 in experiment [1] amounted to 7.63e-08 M; in experiment [2], 1.26e-08 M; in experiment [3], 2.4e-08 M; in experiment [4], 4.33e-08 M; in experiment [5], 1.07e-08 M.
As for `C#CCN1C(=O)C(F)(F)Oc2cc(F)c(-n3c(=O)cc(C(F)(F)F)n(C)c3=O)cc21`, the figures for the IC50 in experiment [6] and in experiment [7] were 2.56 nM and 0.315 nM, respectively.
Taken in the same sequence, the figures for `C#CCN1C(=O)C(F)(F)Oc2cc(F)c(N3C(=O)C4=C(CCCC4)C3=O)cc21` were 641 nM and 0.146 nM.
Regarding `COC(Oc1ccccc1Oc1cc(-n2c(=O)cc(C(F)(F)F)n(C)c2=O)c(F)cc1Cl)C(=O)OC1CCCCC1` (stereo not drawn), the IC50 in experiment [1] was found to be 9.06e-08 M; in experiment [2], 5.14e-08 M; in experiment [3], 5.24e-08 M; in experiment [4], 1.17e-07 M; in experiment [5], 1.72e-07 M.
Regarding `COC(=O)C(OC)Oc1ccccc1Oc1cc(-n2c(=O)cc(C(F)(F)F)n(C)c2=O)c(F)cc1Cl` (stereo not drawn), the IC50 in experiment [1] amounted to 6.93e-09 M; in experiment [2] it was 4.76e-08 M; in experiment [3] it was 3.62e-08 M; in experiment [4], 2.79e-08 M; in experiment [7], 0.411 nM; in experiment [5], 7.14e-08 M.
`C#CCN1C(=O)COc2cc(F)c(N3C(=O)C4=C(CCCC4)C3=O)cc21` [Flumioxazin, flumioxazin]: the half-inhibitory concentration (IC50) in experiment [6] amounted to 8430 nM.

Usually IC50 stands for the midpoint of a concentration-inhibition curve.
